Results as given in patent US4870160A, “Polypeptides with laminin activity” (Regents of the University of Minnesota, priority 1987, dated 1989).
Peptide text beside a SMILES is read from it.

Tests used:
[1] = test system: Bovine aortic endothelial cells; experiment: Aortic endothelial cell adhesion assay (Example 5); format: cell-based; details: 0.1; 1.0; and 10.0 μg/per well adsorbed, 120 minutes at 37° C, FIG. 9
Experimental: Bovine aortic endothelial cells were isolated according to the following protocol. Aortas were obtained from a local slaughterhouse, washed in cold phosphate buffered saline (PBS) (136 mM NaCl, 2.6 mM KCl, 15.2 mM Na2HP04, pH 7.2) and processed within 2 hours. Crude collagenase (CLS III, 125-145 units per mg dry weight, Cooper Biomedical) was used at 2 mg/ml in Dulbecco's modified Eagle's medium (DMEM) (GIBCO). The vessel was clamped at the distal end, filled with the collagenase-PBS solution and digestion was carried out for 10 minutes. The lumenal contents were harvested, followed by the addition of fresh collagenase for two additional 10-minute periods. The enzyme-cell suspensions were added to an equal volume of DMEM containing 10% fetal bovine serum (FBS) to inhibit the enzyme and spun in a centrifuge at 400×g for 10 minutes. The resulting cell pellet was resuspended in DMEM containing 10% FBS, 100 units/ml of penicillin G, 100 μg/ml of streptomycin and 100 μg/ml of crude fibroblast growth factor. Cells are cultured in 75 cm^2 flasks in a humidified 5% CO2 atmosphere at 37° C. Cultures were fed twice a week with the same medium and cells were used in assays when approximately 75% confluent. Cells were identified as endothelial in nature by characteristic cobblestone morphology, contact inhibition of growth upon reaching confluency, and positive immunofluorescent staining for factor VIII:RAg (Miles Laboratories) [S. Schwartz, In Vitro, 14, 966 (1978)]. Only endothelial cells, megakaryocytes and platelets are known to contain the factor VIII:RAg. This method routinely gives a high yield of endothelial cells with little contamination (less than 5%) by smooth muscle cells, pericytes or fibroblasts as judged by phase contrast microscopy as well as by immunostaining.
Adhesion was measured using 96 well microtiter plates adsorbed with three different amounts (0.1; 1.0; and 10.0 μg/per well) of peptides 9, 11-18, BSA and laminin. Cultures of cells which were 60-80% confluent were metabolically labeled for 24 hours with the addition of 3 mCi/ml of ^3 H-amino acid mixture. On the day of the assay, the cells were harvested by trypsinization, the trypsin was inhibited by the addition of serum, and the cells were washed free of this mixture and resuspended in DMEM buffered with HEPES at pH 7.2. The adhesion medium also contained 2 mg/ml BSA. The cells were adjusted to a concentration of 3-4×10^4 /ml and 100 μls of this cell suspension was added to the wells. The assay mixture was then incubated at 37° C for 120 minutes. […] The solubilized cells were then quantitated using a liquid scintillation counter. […]

peptide 13 = biological target: T1, peptide 13 (Mus musculus, UniProt P02469); experiment: Heparin/peptide interaction specificity, competition on coated peptide 13 (Example 4); format: binding; details: 12.5 ug per well of peptide 13 coated, FIG. 8
T1 construct: polypeptide F13 formally represents isolated laminin residues 1171-1188; made in house; host or cells: chemical solid-phase (Merrifield) synthesis, no expression host
Experimental: (§1) To check whether charge was the main factor in the interaction between heparin and peptides 9 and 13, or whether the heparin structure was also critical to this interaction heparin along with two other sulfated glucosaminoglycans, dextran sulfate and chondroitin sulfate were used in competition experiments. A standard amount of 3.1 μg per well of peptide 9 and 12.5 ug per well of peptide 13 were coated on 96-well plates as described above. […] Wells were treated for two hours with 2 mg/ml BSA in wash buffer. Then, a final volume of 50 μls was added to each well, containing a standard amount of 3H-heparin (50,000 cpm per well) and various amounts of non-radioactiveheparin, dextran sulfate and […]. After incubating for two hours at 37° C., the wells were washed and radioactivity was counted as described above in Example 1. […] Therefore, the structure of heparin is a crucial factor for this interaction.

peptide 9 = biological target: T2, peptide 9 (Mus musculus, UniProt P02469); experiment: Heparin/peptide interaction specificity, competition on coated peptide 9 (Example 4); format: binding; details: 3.1 μg per well of peptide 9 coated, FIG. 7
T2 construct: made in house; host or cells: chemical solid-phase (Merrifield) synthesis, no expression host
T2 sequence (P02469 662-681 limits assumed): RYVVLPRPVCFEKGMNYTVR
Experimental: as §1

[2] = Heparin binding to peptides coated on 96-well plastic plates (Example 2); details: 1 mg/ml to 1 μg/ml, two hours at 37° C., FIG. 5
Experimental: In order to test the ability of the synthesized peptides (9 and 11-18) to bind to 96-well plastic plates (in which experiments with cultured cell lines can be performed), we did an experiment similar to that described above in Example 1. Stock solutions of peptides 9 and 11-18, laminin and BSA at a maximum concentration of 1 mg/ml were prepared and serially diluted in PBS+NaN3 producing final concentration from 1 mg/ml to 1 μg/ml. Fifty μl from each concentration was coated on the 96-well plates and left to dry overnight at 28° C. Then, wells were treated for two hours with […] of 2 mg/ml BSA in 6 mM phosphate, 100 mM NaCl, 68 μM CaCl2, pH 6.8 (wash buffer) in order to minimize non-specific binding. Next 50 μls of ^3 H-heparin (10 μg/ml) was added (50,000 cpm/well) for two hours at 37° C. The wells were then washed three times with wash buffer containing 0.05% Triton X-100 and finally they were incubated for thirty minutes at 60 C with 200 μl of 0.5 N NaOH and 1% SDS. The amount of ^3 H-heparin bound at each peptide concentration was quantitated as described above in Example 1.

| Molecule | endothelial cell adhesion [1] | molar concentration needed for 50% inhibition of ^3 H-heparin binding, relative to heparin (peptide 13) | molar concentration needed for 50% inhibition of ^3 H-heparin binding, relative to heparin (peptide 9) | binding of ^3 H-heparin [2] |
| --- | --- | --- | --- | --- |
| CC[C@H](C)[C@H](NC(=O)[C@H](Cc1ccc(O)cc1)NC(=O)CNC(=O)[C@@H]1CCCN1C(=O)[C@H](CC(=O)O)NC(=O)[C@H](CS)NC(=O)[C@@H](N)C(C)C)C(=O)NCC(=O)N[C@@H](CO)C(=O)N[C@@H](CCCNC(=N)N)C(=O)O [Peptide F18, VCDPGYIGSR] (H-VCDPGYIGSR-OH) | potent promoters of endothelial cell adhesion | – | – | – |
| VEGVEGPRCDKCTRGY [Peptide F12, 16-mer, laminin B1 chain aa 1133-1148] | potent promoters of endothelial cell adhesion | – | – | – |
| dermatan sulfate | – | Ten to one hundred times more molar concentration | Ten to one hundred times more molar concentration | – |
| dextran sulfate | – | Ten to one hundred times more molar concentration | Ten to one hundred times more molar concentration | – |
| laminin | – | – | – | bind heparin very well |
